Results from patent US11667602B2, “Compounds and their use” (AstraZeneca AB, priority 2020, dated 2023).
Like-named read-outs stand apart in the source and are kept apart here.

Biological target: T1, human RXFP1 (Homo sapiens, UniProt Q9HBX9)
T1 sequence (Q9HBX9 1-757): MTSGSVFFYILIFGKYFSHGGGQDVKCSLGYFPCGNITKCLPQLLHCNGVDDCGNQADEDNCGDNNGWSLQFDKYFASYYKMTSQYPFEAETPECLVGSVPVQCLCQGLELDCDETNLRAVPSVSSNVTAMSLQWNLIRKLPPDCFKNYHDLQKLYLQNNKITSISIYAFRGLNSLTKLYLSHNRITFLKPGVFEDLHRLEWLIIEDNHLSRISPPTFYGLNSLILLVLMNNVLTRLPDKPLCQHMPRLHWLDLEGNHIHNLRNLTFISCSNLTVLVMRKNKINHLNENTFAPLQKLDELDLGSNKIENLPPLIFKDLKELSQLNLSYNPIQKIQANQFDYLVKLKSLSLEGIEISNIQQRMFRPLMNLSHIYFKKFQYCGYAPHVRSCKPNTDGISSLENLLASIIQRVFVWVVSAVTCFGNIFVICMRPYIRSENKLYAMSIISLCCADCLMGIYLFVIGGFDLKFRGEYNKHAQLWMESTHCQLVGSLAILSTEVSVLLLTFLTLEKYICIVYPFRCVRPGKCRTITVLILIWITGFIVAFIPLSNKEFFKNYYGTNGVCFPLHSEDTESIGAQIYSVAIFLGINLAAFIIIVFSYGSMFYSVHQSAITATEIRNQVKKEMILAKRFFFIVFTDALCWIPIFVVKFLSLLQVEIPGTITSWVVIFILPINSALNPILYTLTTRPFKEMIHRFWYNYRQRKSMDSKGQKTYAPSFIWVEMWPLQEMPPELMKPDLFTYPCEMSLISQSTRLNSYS
Test: RXFP1 Hu cAMP (Test A)
Assay type: cell-based
Parameters: expressed in transfected cells; host or cells: Jump-In T-REx CHO-K1 cells (ThermoFisher), induced with 10 ng/ml doxycycline for 24 h
Procedure, shortened: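 Read-out is HTRF signal, inversely proportional to cAMP, converted to cAMP amount by standard curve. Stimulation occurred in inducible CHO-K1 cells expressing the human receptor with phosphodiesterases blocked by 0.5 mM IBMX.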

[1] = RXFP1 Hu cAMP, read-out: Test A EC50

Structure (SMILES): COc1cc(F)c(-c2ccc(C(=O)O)nc2)cc1C(=O)N[C@H]1[C@@H](C(=O)Nc2cccc(S(=O)(=O)C(F)(F)F)c2)[C@@H]2C=C[C@H]1C2 (racemic) [Example 274, rac-5-(2-Fluoro-4-methoxy-5-(((1R,2R,3S,4S)-3-((3-((trifluoromethyl)sulfonyl)phenyl)carbamoyl)bicyclo[2.2.1]hept-5-en-2-yl)carbamoyl)phenyl)picolinic acid]
- Test A Sinf (RXFP1 Hu cAMP): 61%
- EC50 [1]: 5700 nM

Structure (SMILES): COc1cc(F)c(O[C@H]2CC[C@@](C)(C(=O)O)CC2)cc1C(=O)N[C@@H]1[C@H]2CC[C@H](C2)[C@@H]1C(=O)NCCC(F)(F)F [Example 596]
- Test A Sinf (RXFP1 Hu cAMP): 105%

Structure (SMILES): COCc1cc(OC)c(C(=O)N[C@@H]2[C@H]3CC[C@H](C3)[C@@H]2C(=O)NCC2(C)CCC2)cc1O[C@H]1CC[C@@](C)(C(=O)O)CC1 [Example 402]
- Test A Sinf (RXFP1 Hu cAMP): 131%
- EC50 (Test A EC50, RXFP1 Hu cAMP): 620 nM

Structure (SMILES): COc1cc(F)c(-c2ccccc2CC(=O)O)cc1C(=O)N[C@H]1[C@@H](C(=O)Nc2cccc(S(=O)(=O)C(F)(F)F)c2)[C@@H]2C=C[C@H]1C2 (racemic) [Example 235]
- Test A Sinf (RXFP1 Hu cAMP): 75%

Structure (SMILES): CCCNC(=O)[C@H]1[C@@H]2CC[C@@H](C2)[C@H]1NC(=O)c1cc(O[C@H]2CC[C@@](C)(C(=O)O)CC2)c(C#N)cc1OC [Example 116, (1S,4s)-4-(2-Cyano-4-methoxy-5-(((1S,2R,3S,4R)-3-(propylcarbamoyl)bicyclo[2.2.1]heptan-2-yl)carbamoyl)phenoxy)-1-methylcyclohexane-1-carboxylic acid]
- Test A Sinf (RXFP1 Hu cAMP): 106%
- EC50 [1]: 860 nM

Structure (SMILES): CC1(CNC(=O)[C@H]2[C@@H]3CC[C@@H](C3)[C@H]2NC(=O)c2cc(O[C@H]3CC[C@@](C)(C(=O)O)CC3)cc3cccnc23)CCC1 [Example 407]
- Test A Sinf (RXFP1 Hu cAMP): 99%
- EC50 [1]: 260 nM

Structure (SMILES): COc1cc(F)c(-c2ccc(C(=O)O)cc2)cc1C(=O)N[C@H]1[C@@H]2CC[C@@H](C2)[C@H]1C(=O)N[C@H]1CCCN(S(=O)(=O)C(F)(F)F)C1 (single isomer, unassigned) [Example 313, 2′-Fluoro-4′-methoxy-5′-(((1R*,2S*,3R*,4S*)-3-(((S)-1-((trifluoromethyl)sulfonyl)piperidin-3-yl)carbamoyl)bicyclo[2.2.1]heptan-2-yl)carbamoyl)-[1,1′-biphenyl]-4-carboxylic acid]
- EC50 [1]: > 40000 nM

Structure (SMILES): COc1cc(F)c(O[C@H]2CC[C@@](C)(C(=O)O)CC2)cc1C(=O)NC1CCN(C(C)=O)CC1C(=O)Nc1cccc(S(=O)(=O)C(F)(F)F)c1 (single isomer, unassigned) [Example 514, (1R,4s)-4-(5-(((3R*,4S*)-1-Acetyl-3-((3-((trifluoromethyl)sulfonyl)phenyl)carbamoyl)piperidin-4-yl)carbamoyl)-2-fluoro-4-methoxyphenoxy)-1-methylcyclohexane-1-carboxylic acid]
- Test A Sinf (RXFP1 Hu cAMP): 107%
- EC50 [1]: 15000 nM

Structure (SMILES): COC[C@]1(C(=O)O)CC[C@H](Oc2cc(C(=O)N[C@@H]3[C@@H]4CC[C@@H](C4)[C@@H]3C(=O)Nc3cccc(S(=O)(=O)C(F)(F)F)c3)c(OC)cc2F)CC1 [Example 480]
- Test A Sinf (RXFP1 Hu cAMP): 100%
- EC50 [1]: 98 nM

Structure (SMILES): COc1cc(F)c(O[C@H]2CC[C@@](C)(C(N)=O)CC2)cc1C(=O)N[C@@H]1[C@@H]2CC[C@@H](C2)[C@@H]1C(=O)NCC1(C)CCC1 [Example 421, (1S,2S,3R,4R)-3-(5-(((1s,4S)-4-Carbamoyl-4-methylcyclohexyl)oxy)-4-fluoro-2-methoxybenzamido)-N-((1-methylcyclobutyl)methyl)bicyclo[2.2.1]heptane-2-carboxamide]
- Test A Sinf (RXFP1 Hu cAMP): 96%
- EC50 [1]: 44 nM

Structure (SMILES): COc1cc(C#N)c(O[C@H]2CC[C@@](C)(C(=O)O)CC2)cc1C(=O)N[C@@H]1[C@H]2CC[C@H](C2)[C@@H]1C(=O)NCC(C)(C)OC [Example 129]
- Test A Sinf (RXFP1 Hu cAMP): 107%
- EC50 [1]: 240 nM

Structure (SMILES): COc1cc(F)c(O[C@H]2CC[C@@](C)(C(=O)O)CC2)cc1C(=O)N[C@@H]1[C@H]2CC[C@H](C2)[C@@H]1C(=O)NCC1CC(F)(F)C1 [Example 620]
- Test A Sinf (RXFP1 Hu cAMP): 93%
- EC50 [1]: 690 nM
